In patent US11629201B2, “PSMA-binding agents and uses thereof” (ITM Isotope Technologies Munich SE, priority 2017, dated 2023):

System: PC-3 PIP/flu tumor-bearing mice
Assay: Biodistribution studies in PC-3 PIP/flu tumor-bearing mice
Details: for Tumor-to-blood / Tumor-to-kidney / Tumor-to-liver: PC-3 PIP tumor

O=C(O)CCC(NC(=O)NC(CCCCNC(=O)C(Cc1ccc2ccccc2c1)NC(=O)C1CCC(n2cc(CC(NC(=O)CN3CCN(CC(=O)O)CCN(CC(=O)O)CCN(CC(=O)O)CC3)C(=O)NC(CCCCNC(=O)CCCc3ccc(I)cc3)C(=O)O)nn2)CC1)C(=O)O)C(=O)O (centres unmarked) [^177Lu-PSMA-ALB-01, metal not drawn]
Tumor-to-blood (1 h p.i.): 0.30 ± 0.06
Tumor-to-kidney (1 h p.i.): 0.46 ± 0.04
Tumor-to-liver (1 h p.i.): 1.56 ± 0.30
Blood (4 h p.i.): 25.6 ± 1.53 % IA/g
Bone (4 h p.i.): 3.01 ± 0.09 % IA/g
Heart (4 h p.i.): 8.71 ± 0.50 % IA/g
Intestines (4 h p.i.): 4.17 ± 0.70 % IA/g
Kidneys (4 h p.i.): 24.6 ± 0.38 % IA/g
Liver (4 h p.i.): 5.92 ± 0.07 % IA/g
Lung (4 h p.i.): 14.1 ± 0.99 % IA/g
Muscle (4 h p.i.): 2.06 ± 0.80 % IA/g
PC-3 PIP Tumor (4 h p.i.): 20.4 ± 0.39 % IA/g
PC-3 flu Tumor (4 h p.i.): 5.03 ± 1.61 % IA/g
Salivary glands (4 h p.i.): 5.20 ± 0.73 % IA/g
Spleen (4 h p.i.): 5.34 ± 0.90 % IA/g
Stomach (4 h p.i.): 3.30 ± 0.05 % IA/g
Tumor-to-blood (4 h p.i.): 0.80 ± 0.03
Tumor-to-kidney (4 h p.i.): 0.83 ± 0.03
Tumor-to-liver (4 h p.i.): 3.45 ± 0.03
Blood (8 h p.i.): 21.0 ± 2.86 % IA/g
Bone (8 h p.i.): 2.54 ± 0.26 % IA/g
Heart (8 h p.i.): 7.16 ± 1.23 % IA/g
Intestines (8 h p.i.): 2.44 ± 0.17 % IA/g
Kidneys (8 h p.i.): 22.6 ± 2.38 % IA/g
Liver (8 h p.i.): 5.31 ± 1.23 % IA/g
Lung (8 h p.i.): 11.6 ± 0.83 % IA/g
Muscle (8 h p.i.): 1.63 ± 0.27 % IA/g
PC-3 PIP Tumor (8 h p.i.): 25.5 ± 2.02 % IA/g
PC-3 flu Tumor (8 h p.i.): 4.01 ± 0.79 % IA/g
Salivary glands (8 h p.i.): 4.45 ± 0.56 % IA/g
Spleen (8 h p.i.): 4.05 ± 0.69 % IA/g
Stomach (8 h p.i.): 2.45 ± 0.43 % IA/g
Tumor-to-blood (8 h p.i.): 1.22 ± 0.08
Tumor-to-kidney (8 h p.i.): 1.13 ± 0.07
Tumor-to-liver (8 h p.i.): 4.97 ± 1.21
Blood (24 h p.i.): 14.2 ± 1.40 % IA/g
Bone (24 h p.i.): 1.58 ± 0.06 % IA/g
Heart (24 h p.i.): 5.93 ± 0.65 % IA/g
Intestines (24 h p.i.): 2.12 ± 0.20 % IA/g
Kidneys (24 h p.i.): 22.7 ± 2.18 % IA/g
Liver (24 h p.i.): 2.92 ± 0.67 % IA/g
Lung (24 h p.i.): 8.62 ± 1.47 % IA/g
Muscle (24 h p.i.): 1.34 ± 0.14 % IA/g
PC-3 PIP Tumor (24 h p.i.): 38.2 ± 2.59 % IA/g
PC-3 flu Tumor (24 h p.i.): 3.95 ± 0.82 % IA/g
Salivary glands (24 h p.i.): 3.38 ± 0.32 % IA/g
Spleen (24 h p.i.): 3.60 ± 0.43 % IA/g
Stomach (24 h p.i.): 1.39 ± 0.07 % IA/g
Tumor-to-blood (24 h p.i.): 2.71 ± 0.39
Tumor-to-kidney (24 h p.i.): 1.69 ± 0.07
Tumor-to-liver (24 h p.i.): 13.5 ± 2.79
Blood (48 h p.i.): 12.0 ± 2.18 % IA/g
Bone (48 h p.i.): 1.64 ± 0.34 % IA/g
Heart (48 h p.i.): 4.42 ± 0.81 % IA/g
Intestines (48 h p.i.): 1.84 ± 0.54 % IA/g
Kidneys (48 h p.i.): 25.2 ± 4.15 % IA/g
Liver (48 h p.i.): 3.03 ± 0.63 % IA/g
Lung (48 h p.i.): 7.67 ± 0.83 % IA/g
Muscle (48 h p.i.): 1.35 ± 0.46 % IA/g
PC-3 PIP Tumor (48 h p.i.): 65.6 ± 1.84 % IA/g
PC-3 flu Tumor (48 h p.i.): 4.64 ± 1.84 % IA/g
Salivary glands (48 h p.i.): 3.96 ± 0.98 % IA/g
Spleen (48 h p.i.): 4.62 ± 1.12 % IA/g
Stomach (48 h p.i.): 1.49 ± 0.47 % IA/g
Tumor-to-blood (48 h p.i.): 5.54 ± 0.76
Tumor-to-kidney (48 h p.i.): 2.64 ± 0.40
Tumor-to-liver (48 h p.i.): 22.2 ± 4.11
Blood (96 h p.i.): 6.68 ± 0.85 % IA/g
Bone (96 h p.i.): 1.07 ± 0.22 % IA/g
Heart (96 h p.i.): 2.70 ± 0.37 % IA/g
Intestines (96 h p.i.): 1.05 ± 0.17 % IA/g
Kidneys (96 h p.i.): 13.0 ± 1.30 % IA/g
Liver (96 h p.i.): 1.88 ± 0.36 % IA/g
Lung (96 h p.i.): 5.07 ± 0.66 % IA/g
Muscle (96 h p.i.): 0.82 ± 0.12 % IA/g
PC-3 PIP Tumor (96 h p.i.): 62.3 ± 3.56 % IA/g
PC-3 flu Tumor (96 h p.i.): 2.76 ± 0.23 % IA/g
Salivary glands (96 h p.i.): 2.22 ± 0.38 % IA/g
Spleen (96 h p.i.): 3.12 ± .015 % IA/g
Stomach (96 h p.i.): 0.81 ± 0.04 % IA/g
Tumor-to-blood (96 h p.i.): 9.39 ± 0.65
Tumor-to-kidney (96 h p.i.): 4.80 ± 0.20
Tumor-to-liver (96 h p.i.): 33.7 ± 4.33
Blood (144 h p.i.): 5.78 ± 0.90 % IA/g
Bone (144 h p.i.): 0.99 ± 0.20 % IA/g
Heart (144 h p.i.): 2.23 ± 0.29 % IA/g
Intestines (144 h p.i.): 1.07 ± 0.13 % IA/g
Kidneys (144 h p.i.): 10.2 ± 3.41 % IA/g
Liver (144 h p.i.): 1.56 ± 0.16 % IA/g
Lung (144 h p.i.): 4.90 ± 0.58 % IA/g
Muscle (144 h p.i.): 0.66 ± 0.15 % IA/g
PC-3 PIP Tumor (144 h p.i.): 78.4 ± 8.57 % IA/g
PC-3 flu Tumor (144 h p.i.): 2.82 ± 0.24 % IA/g
Salivary glands (144 h p.i.): 1.68 ± 0.53 % IA/g
Spleen (144 h p.i.): 4.32 ± 0.57 % IA/g
Stomach (144 h p.i.): 0.84 ± 0.13 % IA/g
Tumor-to-blood (144 h p.i.): 13.8 ± 2.38
Tumor-to-kidney (144 h p.i.): 8.05 ± 1.77
Tumor-to-liver (144 h p.i.): 50.5 ± 6.28
Blood (192 h p.i.): 5.21 ± 1.37 % IA/g
Bone (192 h p.i.): 0.86 ± 0.17 % IA/g
Heart (192 h p.i.): 2.12 ± 0.68 % IA/g
Intestines (192 h p.i.): 1.02 ± 0.25 % IA/g
Kidneys (192 h p.i.): 7.56 ± 1.44 % IA/g
Liver (192 h p.i.): 1.51 ± 0.37 % IA/g
Lung (192 h p.i.): 4.12 ± 0.96 % IA/g
Muscle (192 h p.i.): 0.64 ± 0.13 % IA/g
PC-3 PIP Tumor (192 h p.i.): 75.6 ± 22.0 % IA/g
PC-3 flu Tumor (192 h p.i.): 2.73 ± 0.84 % IA/g
Salivary glands (192 h p.i.): 1.78 ± 0.34 % IA/g
Spleen (192 h p.i.): 4.09 ± 1.12 % IA/g
Stomach (192 h p.i.): 0.73 ± 0.12 % IA/g
Tumor-to-blood (192 h p.i.): 14.5 ± 1.84
Tumor-to-kidney (192 h p.i.): 9.87 ± 1.05
Tumor-to-liver (192 h p.i.): 50.2 ± 7.38

O=C(O)CCC(NC(=O)NC(CCCCNC(=O)C(Cc1ccc2ccccc2c1)NC(=O)C1CCC(CNC(=O)C(CCCCNC(=O)CN2CCN(CC(=O)O)CCN(CC(=O)O)CCN(CC(=O)O)CC2)NC(=O)CCCCCCC(=O)NC(CCCCNC(=O)CCCc2ccc(I)cc2)C(=O)O)CC1)C(=O)O)C(=O)O (centres unmarked) [^177Lu-PSMA-ALB-04, metal not drawn]
Tumor-to-blood (1 h p.i.): 0.20 ± 0.02
Tumor-to-kidney (1 h p.i.): 0.54 ± 0.09
Tumor-to-liver (1 h p.i.): 0.33 ± 0.06
Blood (24 h p.i.): 55.3 ± 3.10 % IA/g
Bone (24 h p.i.): 8.88 ± 0.19 % IA/g
Heart (24 h p.i.): 22.1 ± 3.70 % IA/g
Intestines (24 h p.i.): 8.13 ± 1.31 % IA/g
Kidneys (24 h p.i.): 41.5 ± 1.44 % IA/g
Liver (24 h p.i.): 17.6 ± 2.04 % IA/g
Lung (24 h p.i.): 40.1 ± 7.77 % IA/g
Muscle (24 h p.i.): 5.82 ± 1.62 % IA/g
PC-3 PIP Tumor (24 h p.i.): 82.8 ± 6.84 % IA/g
PC-3 flu Tumor (24 h p.i.): 14.0 ± 0.60 % IA/g
Salivary glands (24 h p.i.): 12.5 ± 0.42 % IA/g
Spleen (24 h p.i.): 13.6 ± 1.90 % IA/g
Stomach (24 h p.i.): 6.18 ± 0.95 % IA/g
Tumor-to-blood (24 h p.i.): 1.50 ± 0.11
Tumor-to-kidney (24 h p.i.): 2.00 ± 0.11
Tumor-to-liver (24 h p.i.): 4.76 ± 0.67
Blood (48 h p.i.): 38.2 ± 1.48 % IA/g
Bone (48 h p.i.): 6.80 ± 0.67 % IA/g
Heart (48 h p.i.): 13.6 ± 0.36 % IA/g
Intestines (48 h p.i.): 7.27 ± 0.82 % IA/g
Kidneys (48 h p.i.): 38.2 ± 4.10 % IA/g
Liver (48 h p.i.): 13.1 ± 0.67 % IA/g
Lung (48 h p.i.): 24.6 ± 2.02 % IA/g
Muscle (48 h p.i.): 4.62 ± 0.38 % IA/g
PC-3 PIP Tumor (48 h p.i.): 93.2 ± 12.4 % IA/g
PC-3 flu Tumor (48 h p.i.): 12.6 ± 0.82 % IA/g
Salivary glands (48 h p.i.): 10.6 ± 0.42 % IA/g
Spleen (48 h p.i.): 14.0 ± 1.70 % IA/g
Stomach (48 h p.i.): 5.04 ± 0.35 % IA/g
Tumor-to-blood (48 h p.i.): 2.45 ± 0.41
Tumor-to-kidney (48 h p.i.): 2.47 ± 0.50
Tumor-to-liver (48 h p.i.): 7.16 ± 1.16
Blood (96 h p.i.): 11.65 ± 1.22 % IA/g
Bone (96 h p.i.): 2.54 ± 0.31 % IA/g
Heart (96 h p.i.): 4.81 ± 0.29 % IA/g
Intestines (96 h p.i.): 2.36 ± 0.17 % IA/g
Kidneys (96 h p.i.): 15.3 ± 1.49 % IA/g
Liver (96 h p.i.): 4.67 ± 0.82 % IA/g
Lung (96 h p.i.): 9.96 ± 1.44 % IA/g
Muscle (96 h p.i.): 1.56 ± 0.56 % IA/g
PC-3 PIP Tumor (96 h p.i.): 61.4 ± 7.68 % IA/g
PC-3 flu Tumor (96 h p.i.): 5.63 ± 0.37 % IA/g
Salivary glands (96 h p.i.): 4.08 ± 0.44 % IA/g
Spleen (96 h p.i.): 6.76 ± 0.59 % IA/g
Stomach (96 h p.i.): 1.74 ± 0.11 % IA/g
Tumor-to-blood (96 h p.i.): 5.29 ± 0.74
Tumor-to-kidney (96 h p.i.): 4.03 ± 0.56
Tumor-to-liver (96 h p.i.): 13.4 ± 2.88
Blood (192 h p.i.): 3.75 ± 1.49 % IA/g
Bone (192 h p.i.): 1.17 ± 0.61 % IA/g
Heart (192 h p.i.): 1.73 ± 0.70 % IA/g
Intestines (192 h p.i.): 0.67 ± 0.15 % IA/g
Kidneys (192 h p.i.): 8.82 ± 3.83 % IA/g
Liver (192 h p.i.): 2.45 ± 0.81 % IA/g
Lung (192 h p.i.): 4.10 ± 1.77 % IA/g
Muscle (192 h p.i.): 0.71 ± 0.54 % IA/g
PC-3 PIP Tumor (192 h p.i.): 57.6 ± 17.3 % IA/g
PC-3 flu Tumor (192 h p.i.): 3.31 ± 1.43 % IA/g
Salivary glands (192 h p.i.): 1.96 ± 0.73 % IA/g
Spleen (192 h p.i.): 5.22 ± 3.17 % IA/g
Stomach (192 h p.i.): 0.56 ± 0.19 % IA/g
Tumor-to-blood (192 h p.i.): 15.8 ± 3.55
Tumor-to-kidney (192 h p.i.): 6.91 ± 2.24
Tumor-to-liver (192 h p.i.): 23.9 ± 5.12
